According to patent US9498455B2, “Cinacalcet and neuroblastic tumours” (HOSPITAL SAINT JOAN DE DEU, priority 2012, dated 2016):

Assays:
LA1-55n = test: Cell viability (MTS) after 72 hours, LA1-55n neuroblastoma cell line; type: cell-based; details: no unit in table, tested concentrations given in μM, read-out: IC50 (drug concentration causing the death of 50% of the cells with respect to the control)
Method: (§1) 5×10^3 cells of each cell line (LAN-1, SK-N-BE(2)c, LA1-55n, LA1-5s, SK-N-LP, SK-N-JD, SK-N-AS) were seeded in 96-well plates (6 replicates per condition). The initial medium (RPMI 10% FBS) was removed the next day and substituted with the same medium containing several concentrations (100 μM, 65 μM, 30 μM, 25 μM, 20 μM, 15 μM, 10 μM, 5 μM, 3 μM, 1 μM, 0.3 μM) of cinacalcet (Selleck Biochemicals) or NPS R-568 (Tocris) or equivalent amounts of DMSO (Sigma-Aldrich). Cell viability was evaluated after 72 hours by means of quantifying the percentage of viable cells by means of the Promega CellTiter 96(r) Aqueous One Solution Cell Proliferation Assay (MTS) system. It was thus observed that both drugs induced a decrease in cell viability in the 7 cell lines examined (FIG. 2), and that in 5 of said cell lines the IC50 (drug concentration causing the death of 50% of the cells with respect to the control) of cinacalcet was less than that of NPS R-568 in a statistically significant manner (Table 1). In the case of SK-N-AS and LA1-55n cell lines, the difference in the effect promoted by both drugs was not statistically significant (Table 1).

SK-N-AS = test: Cell viability (MTS) after 72 hours, SK-N-AS neuroblastoma cell line; type: cell-based; details: Homo sapiens, no unit in table, tested concentrations given in μM, read-out: IC50 (drug concentration causing the death of 50% of the cells with respect to the control)
Method: as §1

[1] = test system: Xenografts of LAN-1 cell line; test: In vivo model of neuroblastoma, LAN-1 xenografts, morphological examination; set-up: species or system athymic nu/nu mice; details: LAN-1 xenograft, oral 100 mg/kg 6 days a week from day 12, sacrificed after 40 days
Method: (§2) Xenografts of LAN-1 and SK-N-LP cell lines were generated for which aliquots containing 10×10^6 cells from said cell lines were inoculated subcutaneously in 4-6 week old female athymic nu/nu mice (Charles Rivers). Starting from day 12, when the forming tumor could already be measured using Vernier calipers, oral treatment was started 6 days a week with cinacalcet 100 mg/kg (FIGS. 3C-3F) and with the carrier as a negative control (FIGS. 3A and 3B). The tumor volume was measured every 2-3 days. The mice were sacrificed after 40 days. Each tumor was weighed before being sectioned into two halves: one half was frozen in liquid nitrogen for expression analysis and the other half was fixed and embedded in paraffin for morphological examination and immunohistochemical analyses.

SK-N-LP = test: Cell viability (MTS) after 72 hours, SK-N-LP neuroblastoma cell line; type: cell-based; details: no unit in table, tested concentrations given in μM, read-out: IC50 (drug concentration causing the death of 50% of the cells with respect to the control)
Method: as §1

[2] = test system: Xenografts of SK-N-LP cell line; test: In vivo model of neuroblastoma, SK-N-LP xenografts, morphological examination; set-up: species or system athymic nu/nu mice; details: SK-N-LP xenograft, oral 100 mg/kg 6 days a week from day 12, sacrificed after 40 days
Method: as §2

LAN-1 = test: Cell viability (MTS) after 72 hours, LAN-1 neuroblastoma cell line; type: cell-based; details: LAN1, LAN-1, 72 hours, no unit in table, tested concentrations given in μM, read-out: IC50 (drug concentration causing the death of 50% of the cells with respect to the control)
Method: as §1

LA1-5s = test: Cell viability (MTS) after 72 hours, LA1-5s neuroblastoma cell line; type: cell-based; details: no unit in table, tested concentrations given in μM, read-out: IC50 (drug concentration causing the death of 50% of the cells with respect to the control)
Method: as §1

SK-N-BE(2)C = test: Cell viability (MTS) after 72 hours, SK-N-BE(2)c neuroblastoma cell line; type: cell-based; details: no unit in table, tested concentrations given in μM, read-out: IC50 (drug concentration causing the death of 50% of the cells with respect to the control)
Method: as §1

SK-N-JD = test: Cell viability (MTS) after 72 hours, SK-N-JD neuroblastoma cell line; type: cell-based; details: no unit in table, tested concentrations given in μM, read-out: IC50 (drug concentration causing the death of 50% of the cells with respect to the control)
Method: as §1

[3] = test system: SK-N-LP cells with overexpression of CASR; test: CASR activation by calcium after serum deprivation, SK-N-LP cells with overexpression of CASR; type: cell-based
Method: (§3) Wild type SK-N-LP cells stably transfected with pCMV-GFP or pCMV-CASR-GFP (1×10^6) in RPMI 10% FBS were seeded in P100 plates. The medium was substituted the next day with a serum-free medium (calcium-free DMEM supplemented with 0.2% bovine albumin, 4 mM L-glutamine and 0.5 mM CaCl2). This was maintained for 16 hours before substituting it with the same medium supplemented or not supplemented with up to 3 mM CaCl2. […] In the latter cell lines, indications of cell death were detected, but the cells continued to proliferate until reaching confluence, whereas cells with overexpression of CASR completely disappeared in 5 days.
In order to determine if the cell death process occurred by means of apoptosis, total proteins of wild type SK-N-LP cells (WT) and cells with overexpression of CASR (CASR) were extracted 24 and 48 hours after exposure to this model. The proteins were subjected to SDS-PAGE gel electrophoresis, transferred to a nitrocellulose membrane and incubated with specific antibodies to detect activated caspase 3 and c-PARP (Cell Signaling). Suitable secondary antibodies labeled with peroxidase were used, and it was developed with the Amersham ECL system.

wild type SK-N-LP cells = test: CASR activation by calcium after serum deprivation, wild type or pCMV-GFP SK-N-LP cells; type: cell-based; details: 3 mM CaCl2 after 16 hours serum deprivation; wild type or pCMV-GFP transfected
Method: as §3

| SMILES | IC50 (LA1-55n) [µM] | IC50 (SK-N-AS) [µM] | Morphological analysis of the xenografts: cell death [1] | Morphological analysis of the xenografts: differentiation [1] | IC50 (SK-N-LP) [µM] | Morphological analysis of the xenografts: cell death [2] | Morphological analysis of the xenografts: differentiation [2] | IC50 (LAN-1) [µM] | IC50 (LA1-5s) [µM] | IC50 (SK-N-BE(2)C) [µM] | IC50 (SK-N-JD) [µM] | Cell death (morphology) ([3]; 3 mM CaCl2 after 16 hours serum deprivation) | Caspase 3 activation and PARP cleavage (Western blot) ([3]; 24 and 48 hours after exposure to 3 mM CaCl2 model) | Cell death (morphology) (wild type SK-N-LP cells) |
| --- | --- | --- | --- | --- | --- | --- | --- | --- | --- | --- | --- | --- | --- | --- |
| C[C@@H](NCCCc1cccc(C(F)(F)F)c1)c1cccc2ccccc12 [Cinacalcet, cinacalcet] | 10.5 | 10.3 | large areas with necrosis and/or apoptosis | morphological signs of differentiation in viable cells | 10.3 | large areas with necrosis and/or apoptosis | morphological signs of differentiation in viable cells | 17.2 | 16.7 | 10.7 | 10.9 | – | – | – |
| [Ca+2].[Cl-].[Cl-] [CaCl2] | – | – | – | – | – | – | – | – | – | – | – | suffered cell death | accompanied by caspase 3 activation and PARP cleavage | hardly appreciable |
| COc1cccc([C@@H](C)NCCCc2ccccc2Cl)c1 [NPS R-568] | 11.4 | 15.1 | – | – | 22.4 | – | – | 24.8 | 34.5 | 16.6 | 25.8 | – | – | – |
